Measured values taken from patent US8859018B2, “Delivery carrier for antimicrobial essential oils” (Nestec S.A., priority 2010, dated 2014).

Tested on: Zygosaccharomyces bailii (yeast)
Test: Challenge test with yeasts in MOS / MAS
Assay type: cell-based
Details: for Week 0 (Log cfu/g) / Week 1 (Log cfu/g) / Week 2 (Log cfu/g) / Week 3 (Log cfu/g) / Week 4 (Log cfu/g): 0.10%
Protocol: Target microorganisms used for the challenge tests (CT) were Zygosaccharomyces bailii (yeast), Aspergillus niger (mould), Penicillium nalgiovense (mould) and Eurotium amstelodami (mould).
Stock culture of the yeast was revived on MEB. The inoculated broths were incubated at 30° C. for 48-72 hours with constant swirling. The broth cultures were further sub-cultured in the MEB and incubated similarly at 30° C. for 48-72 hours with constant swirling. The final broth cultures were then analyzed for total yeast counts on MEA plate as well as for microbial contamination on PCA by spread plat 0.1-0.5 ml of suspension onto the agar plates respectively. Before the challenge test is initiated, the broth inoculated with yeast was diluted aseptically with sterile Tryptone Salt 0.1% to the desired level such that the inoculation level in the product would be 2-3 log of colony-forming-units (cfu) of yeast per gram (Cfu: colony forming units).
Challenge Test with yeasts was according to the following steps: 1) Add 100 g of MOS into a 250 ml sterile Schott bottle with screw-cap cover; 2) Add 0.1 ml to 2 ml of yeast (Z. bailii) inoculum to meet the target inoculum of 10^2 to 10^3 cfu/g of MOS into the 100 g MOS and shake to mix well; 3) Pour 35 g of the inoculated MOS into two 150 ml sterile disposable polypropylene container with screw-cap cover; 4) Pipette 1 g of inoculated MOS into 9 ml sterile Tryptone Salt 0.1% diluent and vortex. Perform this in duplicate; 5) Plate 0.1 ml to 0.5 ml of inoculated Tryptone Salt 0.1% onto MEA at appropriate dilutions by Spread Plate Method. Incubate the plates at 30° C. for 3 days for the enumeration of the initial yeast count; 6) Incubate the inoculated MOS in 150 ml containers at 30° C. for a week; 7) After one week, repeat steps 4 to 6 for the weekly monitoring of Z. bailii growth behavior in MOS. Perform the monitoring for a period of 4 weeks; 8) The control was prepared by repeating steps 3 to 7 without using any inoculum.
The method for producing MAS was the same as for the MOS production in experiment 4. The preparation of the microorganism cultures as well as the challenge tests were identical to the ones described in experiment 4 as well.

[1] = MAGGI Abalone Sauce, age 0 month
[2] = MAGGI Abalone Sauce, age 1 month
[3] = MAGGI Abalone Sauce, age 3 month
[4] = MAGGI Abalone Sauce, age 6 month
[5] = MAGGI Abalone Sauce, age 10 month
[6] = MAGGI Abalone Sauce, age 12 month
[7] = MAGGI Oyster Sauce, age 0 month

SMILES: C/C=C/C=C/C(=O)[O-].[K+] [KS, potassium sorbate]
- Week 0 (Log cfu/g) [1]: <1.00 Log cfu/g
- Week 1 (Log cfu/g) [1]: <1.00 Log cfu/g
- Week 2 (Log cfu/g) [1]: <1.00 Log cfu/g
- Week 3 (Log cfu/g) [1]: <1.00 Log cfu/g
- Week 4 (Log cfu/g) [1]: <1.00 Log cfu/g
- Week 0 (Log cfu/g) [2]: <1.00 Log cfu/g
- Week 1 (Log cfu/g) [2]: <1.63 Log cfu/g
- Week 2 (Log cfu/g) [2]: <1.00 Log cfu/g
- Week 3 (Log cfu/g) [2]: <1.00 Log cfu/g
- Week 4 (Log cfu/g) [2]: <1.00 Log cfu/g
- Week 0 (Log cfu/g) [3]: 2.96 Log cfu/g
- Week 1 (Log cfu/g) [3]: <1.00 Log cfu/g
- Week 2 (Log cfu/g) [3]: <1.00 Log cfu/g
- Week 3 (Log cfu/g) [3]: <1.00 Log cfu/g
- Week 4 (Log cfu/g) [3]: <1.00 Log cfu/g
- Week 0 (Log cfu/g) [4]: 2.13 Log cfu/g
- Week 1 (Log cfu/g) [4]: <1.00 Log cfu/g
- Week 2 (Log cfu/g) [4]: <1.00 Log cfu/g
- Week 3 (Log cfu/g) [4]: <1.00 Log cfu/g
- Week 4 (Log cfu/g) [4]: <1.00 Log cfu/g
- Week 0 (Log cfu/g) [5]: 4.43 Log cfu/g
- Week 1 (Log cfu/g) [5]: <2.00 Log cfu/g
- Week 2 (Log cfu/g) [5]: <1.00 Log cfu/g
- Week 3 (Log cfu/g) [5]: <1.00 Log cfu/g
- Week 4 (Log cfu/g) [5]: <1.00 Log cfu/g
- Week 0 (Log cfu/g) [6]: 2.84 Log cfu/g
- Week 1 (Log cfu/g) [6]: 1.72 Log cfu/g
- Week 2 (Log cfu/g) [6]: <1 Log cfu/g
- Week 3 (Log cfu/g) [6]: <1 Log cfu/g
- Week 4 (Log cfu/g) [6]: <1 Log cfu/g
- yeast growth (MAGGI Abalone Sauce, up to 12 months, KS 0.10%, clove leaf oil 0.06 wt % and 0.15 wt %): not detected
- Week 0 (Log cfu/g) [7]: 3.544 Log cfu/g
- Week 1 (Log cfu/g) [7]: <1.00 Log cfu/g
- Week 2 (Log cfu/g) [7]: <1.00 Log cfu/g
- Week 3 (Log cfu/g) [7]: <1.00 Log cfu/g
- Week 4 (Log cfu/g) [7]: <1.00 Log cfu/g
